# According to PubChem BioAssay (NCI):
# Values joined by “and” are separate entries in the source; they are usually repeats but may differ in a detail not shown here. Identical values can stand only once.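 Briefly, cells in 96-well plates were exposed to five compound concentrations for 48 h, and endpoints were estimated by linear interpolation. TGI denotes the concentration required for complete inhibition of growth.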
# Legend:
# Assay in all cases: NCI anticancer screen, dose series, 48 h
# M14 melanoma = system: M14 melanoma
# SNB-75 CNS = system: SNB-75 CNS
# HCC-2998 colon = system: HCC-2998 colon
# A549 NSCLC = system: A549 NSCLC
# IGROV1 ovarian = system: IGROV1 ovarian
# SF-268 CNS = system: SF-268 CNS
# NCI-H522 lung = system: NCI-H522 lung
# SF-539 CNS = system: SF-539 CNS
# CCRF-CEM leukemia = system: CCRF-CEM leukemia
# ACHN renal = system: ACHN renal
# HOP-92 NSCLC = system: HOP-92 NSCLC
# OVCAR-4 ovarian = system: OVCAR-4 ovarian
# COLO 205 colon = system: COLO 205 colon
# M19-MEL melanoma = system: M19-MEL melanoma
# TK-10 renal = system: TK-10 renal
# OVCAR-5 ovarian = system: OVCAR-5 ovarian
# SK-OV-3 ovarian = system: SK-OV-3 ovarian
# HOP-18 NSCLC = system: HOP-18 NSCLC
# A498 renal = system: A498 renal
# KM12 colon = system: KM12 colon
# SK-MEL-5 melanoma = system: SK-MEL-5 melanoma
# KM20L2 colon = system: KM20L2 colon
# HCT-15 colon = system: HCT-15 colon
# LXFL 529 NSCLC = system: LXFL 529 NSCLC
# SK-MEL-2 melanoma = system: SK-MEL-2 melanoma
# UO-31 renal = system: UO-31 renal
# DMS 273 small cell lung = system: DMS 273 small cell lung
# DLD-1 colon = system: DLD-1 colon
# UACC-257 melanoma = system: UACC-257 melanoma
# RXF 393 renal = system: RXF 393 renal
# HL-60(TB) leukemia = system: HL-60(TB) leukemia
# RXF-631 renal = system: RXF-631 renal
# SK-MEL-28 melanoma = system: SK-MEL-28 melanoma
# SR leukemia = system: SR leukemia
# HOP-62 NSCLC = system: HOP-62 NSCLC
# MALME-3M melanoma = system: MALME-3M melanoma
# DMS 114 small cell lung = system: DMS 114 small cell lung
# XF 498 CNS = system: XF 498 CNS
# SN12C renal = system: SN12C renal
# CAKI-1 renal = system: CAKI-1 renal
# SW-620 colon = system: SW-620 colon
# OVCAR-3 ovarian = system: OVCAR-3 ovarian
# U251 CNS = system: U251 CNS
# OVCAR-8 ovarian = system: OVCAR-8 ovarian
# SF-295 CNS = system: SF-295 CNS
# NCI-H226 lung = system: NCI-H226 lung
# 786-0 renal = system: 786-0 renal
# HCT-116 colon = system: HCT-116 colon
# NCI-H460 lung = system: NCI-H460 lung
# NCI-H23 lung = system: NCI-H23 lung
# SNB-19 CNS = system: SNB-19 CNS
# EKVX NSCLC = system: EKVX NSCLC
# SNB-78 CNS = system: SNB-78 CNS
# UACC-62 melanoma = system: UACC-62 melanoma
# MOLT-4 leukemia = system: MOLT-4 leukemia
# HT29 colon = system: HT29 colon
# LOX IMVI melanoma = system: LOX IMVI melanoma
# K-562 leukemia = system: K-562 leukemia
# RPMI-8226 leukemia = system: RPMI-8226 leukemia
smiles,measurement,setting,value
O=C(CC1C(=O)Nc2ccccc2S1=O)Nc1ccccc1 (centres undefined),TGI,M14 melanoma,> 100 µM
same,TGI,SNB-75 CNS,> 100 µM
same,TGI,HCC-2998 colon,> 100 µM
same,TGI,A549 NSCLC,> 100 µM
same,TGI,IGROV1 ovarian,> 100 µM
same,TGI,SF-268 CNS,> 100 µM
same,TGI,NCI-H522 lung,> 100 µM
same,TGI,SF-539 CNS,> 100 µM
same,TGI,CCRF-CEM leukemia,> 100 µM
same,TGI,ACHN renal,> 100 µM
same,TGI,HOP-92 NSCLC,> 100 µM
same,TGI,OVCAR-4 ovarian,> 100 µM
same,TGI,COLO 205 colon,> 100 µM
same,TGI,M19-MEL melanoma,> 100 µM
same,TGI,TK-10 renal,> 100 µM
same,TGI,OVCAR-5 ovarian,> 100 µM
same,TGI,SK-OV-3 ovarian,62.6 µM
same,TGI,HOP-18 NSCLC,> 100 µM
same,TGI,A498 renal,> 100 µM
same,TGI,KM12 colon,> 100 µM
same,TGI,SK-MEL-5 melanoma,> 100 µM
same,TGI,KM20L2 colon,> 100 µM
same,TGI,HCT-15 colon,> 100 µM
same,TGI,LXFL 529 NSCLC,> 100 µM
same,TGI,SK-MEL-2 melanoma,> 100 µM
same,TGI,UO-31 renal,> 100 µM
same,TGI,DMS 273 small cell lung,> 100 µM
same,TGI,DLD-1 colon,> 100 µM
same,TGI,UACC-257 melanoma,> 100 µM
same,TGI,RXF 393 renal,45 µM
same,TGI,HL-60(TB) leukemia,> 100 µM
same,TGI,RXF-631 renal,> 100 µM
same,TGI,SK-MEL-28 melanoma,> 100 µM
same,TGI,SR leukemia,> 100 µM
same,TGI,HOP-62 NSCLC,> 100 µM
same,TGI,MALME-3M melanoma,> 100 µM
same,TGI,DMS 114 small cell lung,> 100 µM
same,TGI,XF 498 CNS,> 100 µM
same,TGI,SN12C renal,> 100 µM
same,TGI,CAKI-1 renal,> 100 µM
same,TGI,SW-620 colon,> 100 µM
same,TGI,OVCAR-3 ovarian,> 100 µM
same,TGI,U251 CNS,> 100 µM
same,TGI,OVCAR-8 ovarian,> 100 µM
same,TGI,SF-295 CNS,> 100 µM
same,TGI,NCI-H226 lung,> 100 µM
same,TGI,786-0 renal,> 100 µM
same,TGI,HCT-116 colon,> 100 µM
same,TGI,NCI-H460 lung,> 100 µM
same,TGI,NCI-H23 lung,> 100 µM
same,TGI,SNB-19 CNS,> 100 µM
same,TGI,EKVX NSCLC,> 100 µM
same,TGI,SNB-78 CNS,> 100 µM
same,TGI,UACC-62 melanoma,> 100 µM
same,TGI,MOLT-4 leukemia,> 100 µM
same,TGI,HT29 colon,> 100 µM
O=S(=O)(O)SC/C=C\CSS(=O)(=O)O,TGI,LOX IMVI melanoma,> 100 µM
same,TGI,M14 melanoma,> 100 µM
same,TGI,SNB-75 CNS,> 100 µM
same,TGI,HCC-2998 colon,> 100 µM
same,TGI,A549 NSCLC,> 100 µM
same,TGI,IGROV1 ovarian,> 100 µM
same,TGI,SF-268 CNS,> 100 µM
same,TGI,NCI-H522 lung,> 100 µM
same,TGI,SF-539 CNS,> 100 µM
same,TGI,ACHN renal,> 100 µM
same,TGI,HOP-92 NSCLC,> 100 µM
same,TGI,OVCAR-4 ovarian,> 100 µM
same,TGI,COLO 205 colon,> 100 µM
same,TGI,M19-MEL melanoma,> 100 µM
same,TGI,TK-10 renal,> 100 µM
same,TGI,OVCAR-5 ovarian,> 100 µM
same,TGI,SK-OV-3 ovarian,> 100 µM
same,TGI,HOP-18 NSCLC,> 100 µM
same,TGI,A498 renal,> 100 µM
same,TGI,KM12 colon,> 100 µM and 61.2 µM
same,TGI,SK-MEL-5 melanoma,> 100 µM
same,TGI,KM20L2 colon,> 100 µM
same,TGI,HCT-15 colon,> 100 µM
same,TGI,LXFL 529 NSCLC,> 100 µM
same,TGI,UO-31 renal,> 100 µM
same,TGI,DMS 273 small cell lung,> 100 µM
same,TGI,DLD-1 colon,> 100 µM
same,TGI,UACC-257 melanoma,> 100 µM
same,TGI,RXF 393 renal,> 100 µM
same,TGI,HL-60(TB) leukemia,> 100 µM
same,TGI,RXF-631 renal,> 100 µM
same,TGI,SK-MEL-28 melanoma,> 100 µM
same,TGI,SR leukemia,> 100 µM
same,TGI,K-562 leukemia,> 100 µM
same,TGI,RPMI-8226 leukemia,> 100 µM
same,TGI,HOP-62 NSCLC,> 100 µM
same,TGI,MALME-3M melanoma,> 100 µM
same,TGI,DMS 114 small cell lung,> 100 µM
same,TGI,XF 498 CNS,> 100 µM
same,TGI,SN12C renal,> 100 µM
same,TGI,CAKI-1 renal,> 100 µM
same,TGI,SW-620 colon,> 100 µM
same,TGI,OVCAR-3 ovarian,> 100 µM
same,TGI,U251 CNS,> 100 µM
same,TGI,OVCAR-8 ovarian,> 100 µM
same,TGI,SF-295 CNS,> 100 µM
same,TGI,NCI-H226 lung,> 100 µM
same,TGI,786-0 renal,> 100 µM
same,TGI,HCT-116 colon,> 100 µM
same,TGI,NCI-H460 lung,> 100 µM
same,TGI,NCI-H23 lung,> 100 µM
same,TGI,SNB-19 CNS,> 100 µM
same,TGI,EKVX NSCLC,> 100 µM
same,TGI,SNB-78 CNS,> 100 µM
same,TGI,UACC-62 melanoma,> 100 µM
same,TGI,MOLT-4 leukemia,> 100 µM
same,TGI,HT29 colon,> 100 µM
Nc1ccc2c(c1)C(=O)N(OS(=O)(=O)c1ccccc1)C2=O,TGI,LOX IMVI melanoma,> 100 µM
same,TGI,M14 melanoma,> 100 µM
same,TGI,SNB-75 CNS,> 100 µM
same,TGI,HCC-2998 colon,> 100 µM
same,TGI,A549 NSCLC,> 100 µM
same,TGI,IGROV1 ovarian,> 100 µM
same,TGI,SF-268 CNS,> 100 µM
same,TGI,NCI-H522 lung,60.7 µM
same,TGI,SF-539 CNS,> 100 µM
same,TGI,CCRF-CEM leukemia,> 100 µM
same,TGI,ACHN renal,> 100 µM
same,TGI,HOP-92 NSCLC,> 100 µM
same,TGI,OVCAR-4 ovarian,> 100 µM
same,TGI,COLO 205 colon,> 100 µM
same,TGI,M19-MEL melanoma,> 100 µM
same,TGI,TK-10 renal,> 100 µM
same,TGI,OVCAR-5 ovarian,> 100 µM
same,TGI,SK-OV-3 ovarian,> 100 µM
same,TGI,HOP-18 NSCLC,> 100 µM
same,TGI,A498 renal,> 100 µM
same,TGI,KM12 colon,> 100 µM
same,TGI,SK-MEL-5 melanoma,> 100 µM
same,TGI,KM20L2 colon,> 100 µM
same,TGI,HCT-15 colon,> 100 µM
same,TGI,LXFL 529 NSCLC,> 100 µM
same,TGI,SK-MEL-2 melanoma,> 100 µM
same,TGI,UO-31 renal,> 100 µM
same,TGI,DMS 273 small cell lung,> 100 µM
same,TGI,DLD-1 colon,> 100 µM
same,TGI,UACC-257 melanoma,> 100 µM
same,TGI,RXF 393 renal,> 100 µM
same,TGI,HL-60(TB) leukemia,> 100 µM
same,TGI,RXF-631 renal,> 100 µM
same,TGI,SK-MEL-28 melanoma,> 100 µM
same,TGI,K-562 leukemia,> 100 µM
same,TGI,HOP-62 NSCLC,> 100 µM
same,TGI,MALME-3M melanoma,> 100 µM
same,TGI,DMS 114 small cell lung,> 100 µM
same,TGI,XF 498 CNS,> 100 µM
same,TGI,SN12C renal,> 100 µM
same,TGI,CAKI-1 renal,> 100 µM
same,TGI,SW-620 colon,> 100 µM
same,TGI,OVCAR-3 ovarian,> 100 µM
same,TGI,U251 CNS,> 100 µM
same,TGI,OVCAR-8 ovarian,> 100 µM
same,TGI,SF-295 CNS,> 100 µM
same,TGI,NCI-H226 lung,> 100 µM
same,TGI,786-0 renal,> 100 µM
same,TGI,HCT-116 colon,> 100 µM
same,TGI,NCI-H460 lung,> 100 µM
same,TGI,NCI-H23 lung,> 100 µM
same,TGI,SNB-19 CNS,> 100 µM
same,TGI,EKVX NSCLC,> 100 µM
same,TGI,SNB-78 CNS,> 100 µM
same,TGI,UACC-62 melanoma,> 100 µM
same,TGI,HT29 colon,> 100 µM
